Values quoted from earlier work as cited in US20170333571A1, “Targeted Delivery Platform for Delivery of Therapeutics” (The Regents of the University of California, priority 2014, published 2017).
No end group written: not given here.

Test system: colitis-induced inflammation
Conditions: exogenous administration, rats and mice

## Ucn1: small peptide (~38 aa), Urocortin 1 (DNPSLSIDLTFHLLRTLLELARTQSQRERAEQNRIIFDSV; ends and bridges not checked; also: 5FAM label, position not given here (in delivery test); UniProt P55089 83-122, looked up)
  colitis-induced inflammation: reduces colitis-induced inflammation
